# Key:
# [1] = molecular target: recombinant CD81-LEL protein (large extracellular loop of human CD81) with a GST tag (human) (UniProt P60033); assay: DPI, E2 protein added to immobilised CD81 together with small molecules 689002 and 93033
# [2] = molecular target: recombinant CD81-LEL protein (large extracellular loop of human CD81) with a GST tag (human) (UniProt P60033); assay: DPI, E2 protein added to immobilised CD81 together with small molecules 93033 and 16631
# [3] = molecular target: recombinant CD81-LEL protein (large extracellular loop of human CD81) with a GST tag (human) (UniProt P60033); assay: DPI, E2 protein added to immobilised CD81 together with small molecule 93033
# [4] = molecular target: recombinant CD81-LEL protein (large extracellular loop of human CD81) with a GST tag (human) (UniProt P60033); assay: DPI, E2 protein alone added to immobilised CD81
# [5] = molecular target: recombinant CD81-LEL protein (large extracellular loop of human CD81) with a GST tag (human) (UniProt P60033); assay: DPI, E2 protein added to immobilised CD81 together with small molecule 30930
# [6] = molecular target: recombinant CD81-LEL protein (large extracellular loop of human CD81) with a GST tag (human) (UniProt P60033); assay: DPI, E2 protein added to immobilised CD81 together with small molecules 30930 and 68365 (so in the source)
# [7] = molecular target: recombinant CD81-LEL protein (large extracellular loop of human CD81) with a GST tag (human) (UniProt P60033); assay: DPI, E2 protein added to immobilised CD81 together with small molecule 689002
# [8] = molecular target: recombinant CD81-LEL protein (large extracellular loop of human CD81) with a GST tag (human) (UniProt P60033); assay: DPI, E2 protein added to immobilised CD81 together with small molecule 165665
# [9] = molecular target: recombinant CD81-LEL protein (large extracellular loop of human CD81) with a GST tag (human) (UniProt P60033); assay: DPI, E2 protein added to immobilised CD81 together with small molecules 93033 and 165665
# [10] = molecular target: T1, recombinant CD81-LEL (GST tag) (Homo sapiens, UniProt P60033); assay: Surface plasmon resonance (Biacore T200) binding of ligands to immobilized recombinant CD81-LEL; conditions: Table A; ligand 600 μM in PBS-0.05% Tween-80; CD81-LEL-GST on CM5 chip
# T1 construct: the large extracellular loop of CD81 (CD81-LEL); gift of Dr. Shoshana Levy, Stanford University
# T1 sequence (P60033 113-201 limits assumed): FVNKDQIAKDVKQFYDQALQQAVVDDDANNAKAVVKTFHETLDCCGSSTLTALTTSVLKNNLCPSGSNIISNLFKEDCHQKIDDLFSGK
# Protocol: SPR analysis was performed using a Biacore T200 workstation (GE Healthcare, NJ, USA). A recombinant form of the CD81-LEL protein with a GST tag (generously provided by Dr. Shoshana Levy, Stanford University) was used to confirm, using an established experimental technique, the binding of several ligands to the protein. Briefly, 10 μM CD81-LEL-GST diluted into 10 mM Na-Acetate buffer pH 4.5 was immobilized for 15 min at a flow speed of 5 μl/min onto a CM5 sensor chip using amine-coupling (EDC-NHS). Approximately 20,000 RU of protein were immobilized on the chip. The ligands were prepared as 600 μM solutions in PBS-0.05% Tween-80 (the running buffer) and they were introduced to the protein using a pre-programmed 3 minute association and 1 minute dissociation interval.
# The binding affinity of the most tightly bound ligand in the group selected for ligand conjugate design (Ligand 1) was estimated using data collected from a series of SPR binding experiments conducted at different ligand concentrations. To obtain the kinetic and affinity data needed to estimate the Kd, the original ligand was diluted serially with running buffer to produce seven different ligand concentrations: 1024 μM, […], 256 μM, 128 μM, 64 μM, 32 μM and 0 μM. Data were fitted using a monovalent binding model.
# A total of 36 ligands were tested experimentally using surface Plasmon resonance (on a Biacore T200 instrument) to identify which of the molecules calculated to bind to Sites 1 and 2 on CD81 actually bind to a recombinant form of the protein (CD81-LEL). Twenty-six of the molecules provided a positive change in response units (RU) upon introduction to a chip containing the immobilized protein (Table A), indicating the ligands bound to the protein. The measured responses for the ligands that bound varied from 2.3 to 78.4 RU. Those ligands providing the largest responses tended to be molecules that were calculated to bind more deeply inside cavities in Site 1 (ligands 30930, 98026, 7436, 5069), Site 2 (ligands 127947, 38743) or Site 4 (ligands 78623, 16631).
# Experimental analysis of ligand binding to recombinant CD81 LEL. Forty ligands calculated by AutoDock to bind to sites 1 and 2 on CD81-LEL were tested experimentally using surface Plasmon resonance as described in the Materials and Methods section. Ligand code numbers are those assigned by the National Cancer Institute. […] Because the binding experiments were performed by passing the same concentration of each ligand sequentially across the same protein coated chip using both techniques, the magnitude of the responses can be used to provide an approximate ranking of binding strength.
# recombinant CD81-LEL = molecular target: T2, recombinant CD81-LEL (Homo sapiens, UniProt P60033); assay: Dual polarization interferometry (DPI) binding of ligands to immobilized recombinant CD81-LEL; conditions: for DPI Binding Response (Radians), molecule added alone to CD81: Table D, single molecule added to CD81
# T2 construct: the large extracellular loop of CD81 (CD81-LEL); GST; His; Shoshana Levy Lab, Stanford (gift)
# T2 sequence (P60033 113-201 limits assumed): T1 sequence (P60033 113-201 limits assumed)
# Protocol: DPI analyses were performed using an AnaLight 4D workstation (Farfield Group, Manchester UK). The recombinant CD81-LEL was immobilized onto a Thiol AnaChip using Sulfo-GMBS as a cross-linker in PBS running buffer. Non-specific sites were blocked with digested casein. TRIS was used to cap the cross-linker, blocking any additional amines from covalently binding to the cross-linker on the chip surface. Ligands were prepared as a 20 mM stock solutions in DMSO. Each ligand was diluted to a final concentration of 500 μM in PBS just prior to injection (final DMSO concentration was 2.5%). PBS and DMSO mixed in the same ratio were used as a blank. Data collection and analysis were performed using the AnaLight Resolver.
# Six of the more interesting ligand candidates being considered for use in creating a ligand conjugate (three calculated to bind to Site 1 and three calculated to bind to Site 2) were further tested to confirm binding using a second experimental technique, dual polarization interferometry. The results, shown in FIG. 6, confirmed that all six ligands bound to the protein. The relative rank in strength of binding of the Site 1 and 2 ligands, as determined by DPI, were also similar to the ranking obtained by SPR or calculated by AutoDock for the majority of the ligands. […] One reason for this observed difference in the DPI response may relate to conformational changes in the protein that occur when the small molecules bind. The change in radians measured using DPI when a ligand binds to a protein is known to result from a combination of two effects: 1) the resulting increase in mass/volume when the ligand binds to the protein on the surface of the chip and 2) a conformational change in the protein induced by the binding of the ligand. Molecules binding in the deeper cavity would be expected to have more and stronger contacts with the protein than ligands sitting exposed to solvent in shallow cavities or surface binding sites. […]
# HCV E2 binding to CD81 = molecular target: T3, HCV E2 binding to CD81 (Homo sapiens, UniProt P60033); assay: DPI assay of ligands blocking HCV E2 protein binding to CD81; conditions: Table D; E2 Protein alone gives 4.1402; reduced response = blocking
# T3 sequence (P60033 113-201 limits assumed): T1 sequence (P60033 113-201 limits assumed)
# Protocol: A subset of the ligands identified to bind to CD81 have been tested using Dual Polarization Interferometry (DPI) to determine if the ligands themselves are effective in blocking E2 binding to CD81. The experiments are conducted by first immobilizing one of the proteins (HCV E2 or CD81) on the chip used to perform the assay. The other protein is then introduced to the chip and the amount of binding is measured. This protein is then washed off and the protein and one of the ligands are then introduced to the chip. If the ligand blocks/interferes with the binding of the two proteins, the DPI response (measured in Radians) is reduced compared to when the protein is added alone. After the measurement is made, the protein and ligand are washed off and the next combination of the protein and a different ligand are added to the chip and the DPI response is measured. Similar experiments can be performed in which the protein is mixed with two or more ligands to see if they have a greater effect when combined.
# Experiments have been conducted with either CD81 or HCV E2 immobilized on the chip. Six ligands have been tested to date.
# [11] = molecular target: T4, native CD81 on Raji cells (Homo sapiens, UniProt P60033); assay: Competition assay: inhibition of FITC-labeled JS-81 anti-CD81 antibody binding to native CD81 on live Raji cells (flow cytometry); format: cell-based
# T4 construct: endogenous in cells; host or cells: Raji (human B cell line)
# T4 sequence (P60033 1-236): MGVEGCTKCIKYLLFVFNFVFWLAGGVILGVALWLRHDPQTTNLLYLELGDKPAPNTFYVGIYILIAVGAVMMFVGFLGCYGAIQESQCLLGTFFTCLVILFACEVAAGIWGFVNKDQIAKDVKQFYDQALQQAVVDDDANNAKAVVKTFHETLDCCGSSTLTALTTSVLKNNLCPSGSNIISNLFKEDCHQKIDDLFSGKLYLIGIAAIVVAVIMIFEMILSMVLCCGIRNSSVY
# Source text: A subset of these ligands and some of those listed in the patent have been tested to identify those ligands that bind to the correct region of the CD81 protein and for binding to native CD81 on living cells (a Raji cell line). This assay tests three concentrations of the ligand to determine if the ligand is capable of inhibiting the binding of an antibody called JS-81. This antibody is known to bind to the region of the CD81 protein we have targeted. If the ligand decreases JS-81 binding as you increase the concentration of the ligand, it is 1) binding to native CD81 on the Raji cells and 2) it is binding to the correct region of the protein.
# For antibody neutralization assay Raji cells were used, a human B cell line that expressed high amounts of CD81 on the surface (data not shown). Cells were grown in RPMI medium (10% FCS, 1% penicillin/streptomycin, 1% L-glutamine, 1% non-essential amino acids, 1% sodium pyruvate, pH 7.4, at 37° C. with 5% CO2). 2×10^5 cells were incubated with or without different concentrations (50 μM, 100 μM, 400 μM and 1 mM) of indicated inhibitor for 20 min at room temperature, subsequently 1 ul (16 ng/μl) of FITC-labeled anti CD81 antibody (BD Pharmingen, 551108) was added to the cells and incubated for 20 min (antibody titration was performed to obtain a working dilution range, data not shown). Cells were washed and analyzed by flow cytometry using fluorescence-activated cell sorting (FACS) (BD FACSCalibur, software: Cell Quest Pro). Mean Fluorescence Intensity MFI was calculated using Flowjo software (TreesStar, www.flowjo.com).
Compound,DPI Binding Response (Radians) [1] [Radians],DPI Binding Response (Radians) [2] [Radians],DPI Binding Response (Radians) [3] [Radians],DPI Binding Response (Radians) [4] [Radians],DPI Binding Response (Radians) [5] [Radians],DPI Binding Response (Radians) [6] [Radians],DPI Binding Response (Radians) [7] [Radians],DPI Binding Response (Radians) [8] [Radians],DPI Binding Response (Radians) [9] [Radians],SPR Response Units [10] [RU],"DPI Response (Radians), ligand added to CD81 protein (recombinant CD81-LEL; Table B and b111, ligand 500 μM in PBS, 2.5% DMSO) [Radians]","DPI Binding Response (Radians), molecule added alone to CD81 (recombinant CD81-LEL) [Radians]","DPI Binding Response (Radians), E2 Protein added to CD81 together with ligand(s) (HCV E2 binding to CD81) [Radians]",Inhibition of JS-81 Binding (%) ([11]; 50 μM ligand),Inhibition of JS-81 Binding (%) ([11]; 100 μM ligand),Inhibition of JS-81 Binding (%) ([11]; 400 μM ligand)
HCV E2 protein (ligand),0.401,0.531,0.255,4.14,2.53,1.45,2.7,-0.0047,0.765,,,,,,,
O=C(Cn1ccc(=O)[nH]c1=O)Nc1ccc(C(=O)O)c(O)c1 [Ligand 93033],,,,,,,,,,16.9,0.7245,0.7245,0.2546,0,0,16
O=C(O)c1cc2cc(OCc3ccccc3)ccc2[nH]1 [Ligand 30930],,,,,,,,,,67.7,,1.102,2.5262,0,0,14
